According to patent US20100184815A1 (priority 2008, published 2010):
Where two headings read alike, the source gives them in different places. One block for each compound: values may come before it.

Legend:
Full Length hPPARα = molecular target: T1, Full Length hPPARα (Homo sapiens, UniProt Q07869); assay: Full length hPPARα transfection assay; assay type: cell-based; settings: full length receptor; read-out: Full Length hPPAR α EC50 (scaled number)
T1 construct: Full Length; expressed in transfected cells; host or cells: Cos cells
T1 sequence (Q07869 1-468): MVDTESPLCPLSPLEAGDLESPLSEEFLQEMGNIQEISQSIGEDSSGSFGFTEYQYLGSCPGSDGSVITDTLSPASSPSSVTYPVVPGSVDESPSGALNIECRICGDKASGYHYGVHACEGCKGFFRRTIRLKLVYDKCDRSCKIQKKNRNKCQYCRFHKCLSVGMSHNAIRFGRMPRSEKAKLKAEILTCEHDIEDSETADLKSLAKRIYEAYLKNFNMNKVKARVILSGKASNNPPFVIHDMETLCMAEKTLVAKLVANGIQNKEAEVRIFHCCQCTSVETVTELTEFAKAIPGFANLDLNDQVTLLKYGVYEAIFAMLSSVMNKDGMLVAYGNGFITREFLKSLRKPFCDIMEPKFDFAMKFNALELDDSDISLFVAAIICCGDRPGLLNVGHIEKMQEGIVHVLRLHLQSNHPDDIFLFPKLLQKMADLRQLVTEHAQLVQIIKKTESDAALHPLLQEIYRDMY
Procedure: Transient transfection assays. Cos cells were seeded in 60-mm dishes at a density of 5.5×10^5 cells/dish in Dulbecco's modified Eagle's medium (DMEM) supplemented with 10% fetal calf serum (FCS) and incubated at 37° C. for 24 hours before transfection. Cells were transfected in Opti-MEM (Gibco; Invitrogen, Carlsbad, Calif.) without FCS for 3 hours at 37° C., using polyethylenimine, with reporter and expression plasmids. The plasmid pBluescript (Stratagene, La Jolla, Calif.) was used as carrier DNA to set the final amount of DNA to 5.5 μg/dish. The pCMV-b-galactosidase expression plasmid was cotransfected as a control for transfection efficiency. Transfection was stopped by the addition of DMEM supplemented with 10% FCS, and cells were then incubated at 37° C. After 16 hours, cells were trypsinized and seeded in 96-well plates at the density of 2×10^4 cells/well and incubated for 6 hours in 10% FCS-containing DMEM. Cells were then incubated for 24 hours in DMEM containing 0.2% FCS and increasing concentrations of the compound tested or vehicle (DMSO). At the end of the experiment, cells were washed once with ice-cold PBS, lysed and the luciferase and b-galactosidase assays were performed in a luminometer and spectrophotomer. Transfection efficiencies were normalized with the b-galactosidase activity assay. Half-maximal effective concentration (EC50) was estimated using Prism software (GraphPad). All transfection experiments were performed at least three times.
In the following tables, proprietary compound EC50 values for hPPAR α, β, δ and γ are shown. The EC50 value is the concentration of a drug that induces a response halfway between the baseline and maximum, and is commonly used as a measure of drug potency. EC50 values are reported on a scale of 1 through 5, wherein the value scale is defined for each receptor as follows: […]

Gal-4 hPPARα = molecular target: T2, Gal-4 hPPARα (Homo sapiens, UniProt Q07869); assay: Gal4-hPPARα transient transfection reporter assay in Cos cells; assay type: cell-based; settings: luciferase reporter, 24 hours with compound, scale 1-5, read-out: Gal-4 hPPAR α EC50 (scaled number)
T2 construct: Plasmids pGal4-hPPARα, pGal4-hPPARγ, pGal4-hPPARδ and pG5-TK-pGL3 were constructed as previously described by Staels, Bart, et al., Nature 1998 Jun; 25
T2 sequence (Q07869 200-468 limits assumed): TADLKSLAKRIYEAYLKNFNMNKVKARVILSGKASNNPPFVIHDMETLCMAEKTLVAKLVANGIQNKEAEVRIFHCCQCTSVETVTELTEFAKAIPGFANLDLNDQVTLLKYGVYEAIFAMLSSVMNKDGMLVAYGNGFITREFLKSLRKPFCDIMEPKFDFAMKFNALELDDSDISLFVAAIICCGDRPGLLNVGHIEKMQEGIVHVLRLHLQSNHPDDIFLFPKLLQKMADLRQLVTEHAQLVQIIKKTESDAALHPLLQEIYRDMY
Outline: (§1)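 Cos cells transiently co-transfected with Gal4-hPPAR expression plasmid, pG5-TK-pGL3 luciferase reporter and β-galactosidase control, then treated 24 h with increasing compound concentrations in DMEM containing 0.2% FCS. Luciferase normalised to β-galactosidase; EC50 from curve fit, at least three experiments.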

Gal-4 hPPARγ = molecular target: T3, Gal-4 hPPARγ (Homo sapiens, UniProt P37231); assay: Gal4-hPPARγ transient transfection reporter assay in Cos cells; assay type: cell-based; settings: luciferase reporter, 24 hours with compound, scale 1-5, read-out: Gal-4 hPPAR γ EC50 (scaled number)
T3 construct: Plasmids pGal4-hPPARα, pGal4-hPPARγ, pGal4-hPPARδ and pG5-TK-pGL3 were constructed as previously described by Staels, Bart, et al., Nature 1998 Jun; 25
T3 sequence (P37231 238-505 limits assumed): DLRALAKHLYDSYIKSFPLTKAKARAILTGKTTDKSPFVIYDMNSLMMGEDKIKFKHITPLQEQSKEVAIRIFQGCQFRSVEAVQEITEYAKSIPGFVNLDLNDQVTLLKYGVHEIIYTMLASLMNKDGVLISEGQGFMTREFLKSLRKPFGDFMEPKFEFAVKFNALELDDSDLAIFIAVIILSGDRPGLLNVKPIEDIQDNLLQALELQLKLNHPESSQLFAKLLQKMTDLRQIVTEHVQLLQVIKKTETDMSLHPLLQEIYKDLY
Outline: as §1

Gal-4 hPPARβ/δ = molecular target: T4, Gal-4 hPPARβ/δ (Homo sapiens, UniProt Q03181); assay: Gal4-hPPARδ transient transfection reporter assay in Cos cells; assay type: cell-based; settings: luciferase reporter, 24 hours with compound, scale 1-5, read-out: Gal-4 hPPAR β/δ EC50 (scaled number)
T4 construct: Plasmids pGal4-hPPARα, pGal4-hPPARγ, pGal4-hPPARδ and pG5-TK-pGL3 were constructed as previously described by Staels, Bart, et al., Nature 1998 Jun; 25
T4 sequence (Q03181 171-441 limits assumed): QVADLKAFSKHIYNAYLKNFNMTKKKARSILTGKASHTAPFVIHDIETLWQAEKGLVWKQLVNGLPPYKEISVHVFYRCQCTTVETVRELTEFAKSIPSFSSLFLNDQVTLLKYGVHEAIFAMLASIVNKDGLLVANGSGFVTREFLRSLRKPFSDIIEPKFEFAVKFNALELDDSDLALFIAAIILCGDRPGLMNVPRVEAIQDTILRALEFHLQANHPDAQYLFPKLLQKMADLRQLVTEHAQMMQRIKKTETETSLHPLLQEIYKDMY
Outline: as §1

pig liver esterase = assay: Metabolism studies using pig liver esterase; assay type: in vitro ADME; settings: 37° C.
Procedure: The esterase-mediated metabolism of these compounds was studied using commercially available pig liver esterase in the presence and absence of human plasma proteins. The disappearance of parent was monitored over the time course of the incubations using a LC-UV detection system.
A stock solution and working stock solution was prepared for each proprietary compound as described for the human liver microsomal incubations. Working solutions of pig liver esterase in potassium phosphate buffer ([…], pH 7.4) and pig liver esterase in human plasma protein were prepared by dissolving pig liver esterase (2.51 mg) in the phosphate buffer or plasma protein solutions, respectively.
A set of three Eppendorf microfuge tubes (1.5 mL) was appropriately labeled. To each tube was added 1.5 mL of phosphate buffer, pig liver esterase in buffer, or pig liver esterase in human plasma protein solution. These solutions were pre-incubated (37° C., 900 rpm) and the reactions were initiated by adding an aliquot (37.5 μL) of the working solution of proprietary compound to each tube. An aliquot (100 μL) from each tube was removed at time 0, 5, 30, 60, and 120 min and added to a tube containing acetonitrile (200 μL) to stop the reaction.
The samples were centrifuged at 14000 g for 15 minutes at 4° C. The supernatant was transferred to clean labeled HPLC injection vials and stored at −80° C. until analyzed. An aliquot of the supernatant (25 μL) was injected onto the LC-UV system for analysis.
Half lives of a sample of test articles is noted in the following table. Half life was determined in the presence or absence of plasma.

[1] = Metabolism studies using human liver microsomal preparations; assay type: in vitro ADME; settings: pooled human liver microsomes, with NADPH (CYP system active), 37° C.
Procedure: Compounds were incubated in pooled human liver microsomes (HLMs) in the presence or absence of an NADPH-generating system. NADPH is required for the activity of cytochrome P450 (CYP) and other oxidative enzymes present in HLMs, but not for esterase activity. An additional incubation was carried out in the absence of HLM to assess compound stability. The disappearance of parent and the appearance of the corresponding acid metabolite were monitored over the time course of the incubations using LC-MS/MS.
A stock solution (20 mM) of each proprietary compound in DMSO was prepared and store at −20° C. until needed. A working stock solution (0.2 mM) was prepared for each proprietary compound by adding an aliquot of the stock solution (10 μL) to acetonitrile (990 μL).
An aliquot of the HLM solution was removed from the −80° C. freezer and placed on ice. Tris Buffer (50 mM, pH 7.4) containing MgCl2 (hexahydrate, 5 mM) was pre-incubated in a 37° C. water bath. A set of Eppendorf microfuge tubes (1.5 mL) was appropriately labeled. To each tube was added Tris buffer with or without the NADPH generating system. An aliquot of pooled HLMs was added to all the incubations except those that were the buffer control.
Tubes were preincubated for 5 min in a shaking incubator bath (37° C., 900 rpm) and the reaction was initiated by adding an aliquot of the proprietary working solution (5 μL). The additions were timed carefully in order to coordinate the sample collections below. A small aliquot (50 μL) was removed at […] and delivered to the respective tubes containing dextrorphan (100 μL of 0.5 μg/mL solution) in dissolved in methanol or acetonitrile. The samples were centrifuged at 14000 g for 15 minutes at 4° C. The supernatant was transferred to clean labeled HPLC injection vials and stored at −80° C. until analyzed. An aliquot of the supernatant […] was added to water (75 μL), mixed and injected onto the LC-MS/MS system for analysis.
“HLM t1/2” represents the observed half life of the compound under conditions that included NADPH, i.e., the CYP system was active. Comparison to the half life of the test article under (−)NADPH conditions, the enzyme predominant ly responsible for the metabolism of the test article. […] Where roughly equal metabolism is seen by each enzyme system, “mixed” is noted in the “Predominant enzyme” column.

[2] = pig liver esterase in human plasma protein solution, read-out: Pig Liver Esterase (t1/2 min.) (+) Plasma
[3] = pig liver esterase in phosphate buffer pH 7.4, no plasma, read-out: Pig Liver Esterase (t1/2 min.) (−) Plasma

SMILES: Cc1ccc(Cn2nncc2COC(=O)c2ccc(SC(C)(C)C(=O)O)cc2)cc1 [Compound 62, 2-methyl-2-(4-(((1-(4-methylbenzyl)-1H-1,2,3-triazol-5-yl)methoxy)carbonyl)phenylthio)propanoic acid]
EC50 (Full Length hPPARα): 51 to 200 nM
EC50 (Gal-4 hPPARα): 51 to 200 nM
EC50 (Gal-4 hPPARγ): > 1000 nM
EC50 (Gal-4 hPPARβ/δ): > 1000 nM

SMILES: COc1ccc(Cn2cc(COC(=O)c3ccc(SC(C)(C)C(=O)O)cc3)nn2)cc1 [Compound 68, 2-(4-(((1-(4-methoxybenzyl)-1H-1,2,3-triazol-4-yl)methoxy)carbonyl)phenylthio)-2-methylpropanoic acid]
EC50 (Full Length hPPARα): 51 to 200 nM
EC50 (Gal-4 hPPARα): 51 to 200 nM
EC50 (Gal-4 hPPARγ): > 1000 nM
EC50 (Gal-4 hPPARβ/δ): > 1000 nM

SMILES: Cc1ccc(Cn2cc(C(C)OC(=O)c3ccc(SC(C)(C)C(=O)O)cc3)nn2)cc1 (stereo not drawn) [Compound 81, 2-methyl-2-(4-((1-(1-(4-methylbenzyl)-1H-1,2,3-triazol-4-yl)ethoxy)carbonyl)phenylthio)propanoic acid]
EC50 (Full Length hPPARα): < 1 nM
EC50 (Gal-4 hPPARα): 1 to 50 nM
EC50 (Gal-4 hPPARγ): > 1000 nM
EC50 (Gal-4 hPPARβ/δ): > 1000 nM

SMILES: CC(C)(Sc1ccc(C(=O)OCCn2cc(-c3ccc(C(C)(C)C)cc3)nn2)cc1)C(=O)O [Compound 89, 2-(4-((2-(4-(4-tert-butylphenyl)-1H-1,2,3-triazol-1-yl)ethoxy)carbonyl)phenylthio)-2-methylpropanoic acid]
EC50 (Full Length hPPARα): 1 to 50 nM
EC50 (Gal-4 hPPARα): 51 to 200 nM
EC50 (Gal-4 hPPARγ): > 1000 nM
EC50 (Gal-4 hPPARβ/δ): > 1000 nM

SMILES: CCCn1c(COC(=O)c2ccc(OC(C)(C)C(=O)O)c(OC)c2)nn(Cc2ccc(C(C)(C)C)cc2)c1=O [Compound 180, 2-(4-(((1-(4-tert-butylbenzyl)-5-oxo-4-propyl-4,5-dihydro-1H-1,2,4-triazol-3-yl)methoxy)carbonyl)-2-methoxyphenoxy)-2-methylpropanoic acid]
EC50 (Full Length hPPARα): < 1 nM
EC50 (Gal-4 hPPARα): 201 to 999 nM
EC50 (Gal-4 hPPARγ): > 1000 nM
EC50 (Gal-4 hPPARβ/δ): > 1000 nM

Next, values leading:

EC50 (Full Length hPPARα): 1 to 50 nM
EC50 (Gal-4 hPPARα): 201 to 999 nM
EC50 (Gal-4 hPPARγ): > 1000 nM
EC50 (Gal-4 hPPARβ/δ): > 1000 nM
SMILES: Cn1nc(-c2ccccc2)cc1COC(=O)c1ccc(OC(C)(C)C(=O)O)cc1 [Compound 2, 2-methyl-2-(4-(((1-methyl-3-phenyl-1H-pyrazol-5-yl)methoxy)carbonyl)phenoxy)propanoic acid]

half-life at 4.9 µM (pig liver esterase; [2]): > 2 h
half-life at 4.9 µM (pig liver esterase; [3]): > 2 h
HLMs t1/2 (min) [1]: Stable
EC50 (Gal-4 hPPARα): 51 to 200 nM
EC50 (Gal-4 hPPARγ): > 1000 nM
EC50 (Gal-4 hPPARβ/δ): > 1000 nM
SMILES: CCCn1c([C@H](C)OC(=O)c2ccc(SC(C)(C)C(=O)O)cc2)nn(Cc2ccc(C)cc2)c1=O [Compound 248, 4-(1-Carboxy-1-methyl-ethylsulfanyl)-benzoic acid (S)-1-[1-(4-methyl-benzyl)-5-oxo-4-propyl-4,5-dihydro-1H-1,2,4-triazol-3-yl]-ethyl ester]

half-life at 4.9 µM (pig liver esterase; [2]): > 2 h
half-life at 4.9 µM (pig liver esterase; [3]): > 2 h
HLMs t1/2 (min) [1]: Stable
EC50 (Gal-4 hPPARα): 1 to 50 nM
EC50 (Gal-4 hPPARγ): > 1000 nM
EC50 (Gal-4 hPPARβ/δ): > 1000 nM
SMILES: CCCn1c([C@@H](C)OC(=O)c2ccc(SC(C)(C)C(=O)O)cc2)nn(Cc2ccc(C)cc2)c1=O [Compound 249, 4-(1-Carboxy-1-methyl-ethylsulfanyl)-benzoic acid (R)-1-[1-(4-methyl-benzyl)-5-oxo-4-propyl-4,5-dihydro-1H-1,2,4-triazol-3-yl]-ethyl ester]
